These are literature values, as cited in paper PMC10817097, “Caffeic Acid Phosphanium Derivatives: Potential Selective Antitumor, Antimicrobial and Antiprotozoal Agents” (International Journal of Molecular Sciences, 2024).

Structures are written as SMILES.

Holding throughout (parameters): method as in PMID 36771693
Data set [1] relates to HeLa (human cervical adenocarcinoma). As to conditions: standard; cited from earlier work.
The test system of data set [2] is HCT116 (human colorectal adenocarcinoma). The conditions noted are these: HCT116, standard; cited from earlier work.
Data set [3] relates to MDA-MB-231 (human mammary gland adenocarcinoma). The conditions noted are these: MDA-MB-231, standard; cited from earlier work.
Data set [4] relates to MCF-7 (human breast adenocarcinoma). As to conditions: MCF-7, standard; cited from earlier work.
Data set [5] relates to A2058 (human metastatic melanoma). The conditions noted are these: A2058, standard; cited from earlier work.
The test system of data set [6] is PANC-1 (human pancreatic adenocarcinoma). The conditions noted are these: PANC-1, standard; cited from earlier work.
In data set [7] the test system is Jurkat (human leukemic T cell lymphoma). The conditions noted are these: standard; cited from earlier work.
The subject of data set [8] is NIH 3T3 (murine fibroblasts). As to conditions: NIH 3T3 control cells, standard; cited from earlier work.
Data set [9] relates to MCF-10A cell line (human mammary gland epithelial cells). As to conditions: MCF-10A control cells, standard; cited from earlier work.

In the case of `N.N.[Cl][Pt][Cl]` [CisPt, cisplatin], the IC50 in [1] was 35.4 µM; in data set [2], 7.4 µM; in data set [3] it was 7.1 µM; in data set [4] it was 29.7 µM; in [5], 21.5 µM; in data set [6], 16.5 µM. Also, the IC50 in data set [7] is 6.3 µM; in data set [8], 40.6 µM; in data set [9], 25.9 µM.
